Measured values taken from PubChem BioAssay (NCI).
Where “and” joins values, the source holds several entries; their conditions need not be identical. Equal values may be shown once.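 The compound was tested at five concentrations on cells cultured in 96-well plates, with a 48-hour exposure period. GI50 marks 50% less growth. TGI denotes the concentration required for complete inhibition of growth.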 Where a SMILES comes first, the peptide text is derived from it. [ ]: non-standard residue; d: D form. The star is where a group is joined. ξ: configuration not given here. X37 = O=C(OCc1ccccc1)[C@@H]1CCC[C@H]1N*; Fmoc = O=C(OCC1c2ccccc2-c2ccccc21)*; ξW = NC(Cc1c[nH]c2ccccc12)C(=O)O; ξF = NC(Cc1ccccc1)C(=O)O; Boc = CC(C)(C)OC(=O)*; ξK = NCCCCC(N)C(=O)O; ξT = CC(O)C(N)C(=O)O; tBu = CC(C)(C)*

Assays:
Experiment in all cases: DTP human tumour cell line panel, 48 h
MALME-3M melanoma = test system: MALME-3M melanoma
HL-60(TB) leukemia = test system: HL-60(TB) leukemia
SF-268 CNS = test system: SF-268 CNS
HCC-2998 colon = test system: HCC-2998 colon
CCRF-CEM leukemia = test system: CCRF-CEM leukemia
HOP-62 NSCLC = test system: HOP-62 NSCLC
K-562 leukemia = test system: K-562 leukemia
NCI/ADR-RES ovarian = test system: NCI/ADR-RES ovarian
NCI-H226 lung = test system: NCI-H226 lung
MDA-MB-231 breast = test system: MDA-MB-231 breast
MDA-MB-435 = test system: MDA-MB-435
SNB-19 CNS = test system: SNB-19 CNS

| SMILES | TGI (MALME-3M melanoma) | TGI (HL-60(TB) leukemia) | TGI (SF-268 CNS) | TGI (HCC-2998 colon) | TGI (CCRF-CEM leukemia) | TGI (HOP-62 NSCLC) | TGI (K-562 leukemia) | TGI (NCI/ADR-RES ovarian) | TGI (NCI-H226 lung) | TGI (MDA-MB-231 breast) | TGI (MDA-MB-435) | GI50 (MALME-3M melanoma) | GI50 (HL-60(TB) leukemia) | GI50 (SF-268 CNS) | GI50 (HCC-2998 colon) | GI50 (CCRF-CEM leukemia) | GI50 (NCI/ADR-RES ovarian) | GI50 (MDA-MB-231 breast) | GI50 (SNB-19 CNS) | TGI (SNB-19 CNS) |
| --- | --- | --- | --- | --- | --- | --- | --- | --- | --- | --- | --- | --- | --- | --- | --- | --- | --- | --- | --- | --- |
| CC(OC(C)(C)C)C(NC(=O)C(CCCCNC(=O)OC(C)(C)C)NC(=O)C(Cc1c[nH]c2ccccc12)NC(=O)C(Cc1ccccc1)NC(=O)OCC1c2ccccc2-c2ccccc21)C(=O)NC(Cc1ccccc1)C(=O)N[C@@H]1CCC[C@H]1C(=O)OCc1ccccc1 (some centres not stated) (Fmoc-[ξF][ξW][ξK](Boc)[ξT](tBu)[ξF]-X37) | > 100 µM | > 100 µM | > 100 µM | > 100 µM | > 100 µM | > 100 µM | > 100 µM | > 100 µM | > 100 µM | > 100 µM | > 100 µM | – | – | – | – | – | – | – | – | – |
| CC(=O)OCC1OC(n2c(-c3ccccc3)c(N=Nc3ccc(Cl)cc3)c(C)c(C#N)c2=S)C(OC(C)=O)C(OC(C)=O)C1OC(C)=O (configuration not stated) | > 100 µM | > 100 µM | > 100 µM | 63 µM and > 100 µM | 54.3 µM and > 100 µM | 52.9 µM and > 100 µM | 28.6 µM and > 100 µM | > 100 µM | – | > 100 µM | 41.1 µM and > 100 µM | 20.1 µM and > 100 µM | 23 µM and 8.03 µM | 14.7 µM and 39.3 µM | 18 µM and > 100 µM | 4.1 µM and 13.7 µM | 6.76 µM and 33.2 µM | 20.3 µM and 45.2 µM | 4.48 µM and 34.1 µM | 33.3 µM and > 100 µM |
| Cc1ccc(S(=O)/C=C(\NC(=O)OCc2ccccc2)C(F)(F)F)cc1 (configuration not stated) | > 100 µM | 42 µM | – | > 100 µM | 72.4 µM | – | > 100 µM | > 100 µM | > 100 µM | > 100 µM | > 100 µM | – | – | – | – | – | – | – | – | > 100 µM |
| O=C1/C(=C/c2ccc(O)cc2)CCC1CNc1ccc(Cl)cc1 (configuration not stated) | 8.57 µM | – | 19.8 µM | 14.8 µM | 11.2 µM | 20.7 µM | 10.2 µM | 20.1 µM | 25.8 µM | 9.56 µM | 17.3 µM | – | – | – | – | – | – | – | – | 28.6 µM |
| CCCCCCc1cc(C=O)sc1-c1ccc(-c2sc(-c3ccc(-c4ccc(-c5cc(CCCCCC)c(-c6ccc(-c7sc(C=O)cc7CCCCCC)s6)s5)s4)s3)cc2CCCCCC)s1 | > 100 µM | > 100 µM | > 100 µM | > 100 µM | > 100 µM | > 100 µM | > 100 µM | > 100 µM | > 100 µM | > 100 µM | > 100 µM | – | – | – | – | – | – | – | – | > 100 µM |
| COc1ccc2c(c1)CCC(CN1CCN(CCOC(c3ccc(F)cc3)c3ccc(F)cc3)CC1)=C2 | 27.9 µM | 30.3 µM | > 100 µM | 19 µM | > 100 µM | > 100 µM | > 100 µM | 38.4 µM | 30.6 µM | 31.8 µM | 68.9 µM | – | – | – | – | – | – | – | – | > 100 µM |
| COc1ccc2c(c1)CC[C@@H]1C2CC[C@]2(C)OC(=O)CCC12 (some centres not stated) | 36 µM | > 100 µM | 26.6 µM | > 100 µM | > 100 µM | 65.3 µM | > 100 µM | 33.4 µM | 36.7 µM | 11.5 µM | > 100 µM | – | – | – | – | – | – | – | – | 38.2 µM |
| CCOc1ccc(N=NC2C(=O)N(C(=O)CC(=O)Nc3ccc(Cl)cc3)N=C2C)cc1 (configuration not stated) | > 100 µM | > 100 µM | > 100 µM | > 100 µM | > 100 µM | > 100 µM | – | > 100 µM | > 100 µM | > 100 µM | > 100 µM | – | – | – | – | – | – | – | – | – |
| COc1ccc(NS(=O)C2CCCCC2)cc1 (configuration not stated) | > 100 µM | > 100 µM | > 100 µM | > 100 µM | > 100 µM | > 100 µM | > 100 µM | > 100 µM | > 100 µM | > 100 µM | > 100 µM | – | – | – | – | – | – | – | – | > 100 µM |
| CCN(CC)P1(=S)Oc2ccc3ccccc3c2-c2c(ccc3ccccc23)O1 | > 100 µM | > 100 µM | – | > 100 µM | > 100 µM | > 100 µM | > 100 µM | > 100 µM | > 100 µM | > 100 µM | > 100 µM | – | – | – | – | – | – | – | – | > 100 µM |
| Cc1ccc(Nc2ncnc3sc(SCc4ccccc4)nc23)cc1 | > 100 µM | > 100 µM | > 100 µM | > 100 µM | > 100 µM | > 100 µM | > 100 µM | > 100 µM | > 100 µM | > 100 µM | > 100 µM | – | – | – | – | – | – | – | – | > 100 µM |
| CC(=O)c1ccc2c(c1)CC1(C2)Cc2cc3c(cc2C1)C(=O)CC3 (configuration not stated) | 25.7 µM | 2.1 µM | > 100 µM | 7.48 µM | 3.87 µM | 16.1 µM | 2.32 µM | 17.2 µM | 2.33 µM | 11.2 µM | 0.636 µM | – | – | – | – | – | – | – | – | > 100 µM |
| COc1ccccc1NC(=S)N/N=C(/c1ccccc1)c1ccccn1 | 17.3 µM | 2.18 µM | 20.4 µM | 29.1 µM | 9.54 µM | 12.6 µM | – | 11.3 µM | 8.64 µM | 11.4 µM | 20 µM | – | – | – | – | – | – | – | – | 21.8 µM |
| C(=N\NC1=NCCCN1)/c1ccc(-c2cn3cc(/C=N/NC4=NCCCN4)ccc3n2)cc1 | 87.4 µM | > 58.1 µM | > 100 µM | > 100 µM | > 66.2 µM | > 100 µM | > 84.3 µM | > 100 µM | > 100 µM | > 100 µM | > 100 µM | – | – | – | – | – | – | – | – | > 100 µM |
| CC(C)(C)c1cc(C2COC(=O)COCCOCC(=O)OCCOCCO2)cc(C(C)(C)C)c1O (configuration not stated) | > 100 µM | > 100 µM | > 90.7 µM | 43 µM | > 100 µM | > 92.9 µM | > 100 µM | > 100 µM | > 100 µM | > 100 µM | > 100 µM | – | – | – | – | – | – | – | – | > 100 µM |
| CCOC(=O)c1cc(-c2ccc(OC)c(OC)c2)cn1C | > 10 µM | > 10 µM | > 10 µM | > 10 µM | > 10 µM | > 10 µM | > 10 µM | > 10 µM | > 10 µM | > 10 µM | > 10 µM | – | – | – | – | – | – | – | – | > 10 µM |
| CC1OC(OC2C(CO)OC(O[C@H]3CC[C@@]4(C)C(=CC[C@H]5[C@@H]6C[C@@H]7O[C@](O)(CC[C@@H](C)COC8OC(CO)C(O)C(O)C8O)[C@@H](C)[C@@H]7[C@@]6(C)CC[C@@H]54)C3)C(OC3OC(C)C(O)C(O)C3O)C2O)C(O)C(O)C1O (some centres not stated) | 4.1 µM | 4.14 µM | 8.33 µM | 7.28 µM | 6.38 µM | 4.74 µM | > 43.4 µM | 4.22 µM | – | 14.8 µM | 9.32 µM | – | – | – | – | – | – | – | – | 6.39 µM |
